Data reported in patent US8883963B2 (Cadila Healthcare Limited, priority 2007, dated 2014).

Tests used:
[1] = system: C57BL/6J mice (mild hyperglycemic); test: In vivo glucose reduction, acute single dose 120-min time-course, i.p. route; parameters: species or system mouse; unit not given here; conditions: male C57BL/6J mice
Protocol: All the animal experiments were carried out according to the internationally valid guidelines following approval by the ‘Zydus Research Center animal ethical committee’.
Two days prior to the study, the animals were randomised and divided into 5 groups (n=6), based upon their fed glucose levels. On the day of experiment, food was withdrawn from all the cages, water was given ad-libitum and were kept for overnight fasting. Vehicle (normal saline)/test/standard compounds were administered intraperitoneally (i.p.) or orally, on a body weight basis.
Blood samples were centrifuged and the separated serum was immediately subjected for the glucose estimation. Serum for insulin estimation was stored at −70° C. until used for the insulin estimation. The glucose estimation was carried out with DPEC-GOD/POD method (Ranbaxy Fine Chemicals Limited, Diagnostic division, India), using Spectramax-190, in 96-microwell plate reader (Molecular devices Corporation, Sunnyvale, Calif.). […] The AUC and BCAUC obtained from graphs were analyzed for one way ANOVA, followed by Dunnett's post test, using Graph Pad prism software. Furthermore, the insulin estimation was carried out using rat/mouse insulin ELISA kit (Linco research, Missouri USA).

[2] = Stability in simulated intestinal fluid; type: in vitro ADME; conditions: 2 μM peptidomimetic, simulated intestinal fluid pH 7.5, 37° C.; for half-life at 2 μM: read-out: half-life (t1/2) when incubated with simulated intestinal fluid
Protocol: (§1) Reactions were terminated by the addition of TFA/H2O (15 mL, 10% (v/v)). […] The column was equilibrated with TFA/H20, at a flow rate of 1 mL/min.

[3] = Stability in human plasma; type: in vitro ADME; conditions: 2 μM peptidomimetic, pooled human plasma, 37° C.; for half-life at 2 μM: pH 7.8, read-out: half-life (t1/2) when incubated with human plasma
Protocol: as §1

DPP IV = DPP IV (Homo sapiens, UniProt P27487); test: Stability against DPP IV enzyme; type: in vitro ADME; conditions: 37° C.; for % degradation of peptidomimetics in 24 h when incubated with DPP-IV enzyme: 2 μM peptidomimetic; for half-life at 2 μM: DPP IV enzyme, pH 7.8, 2 μM peptidomimetic, read-out: half-life (t1/2) when incubated with DPP-IV enzyme
Protocol: as §1

Human GLP-1 receptor = biological target: T1, Human GLP-1 receptor (Homo sapiens, UniProt P43220); test: In vitro Human GLP-1 R agonist activity (cyclic AMP determination) in CHO/human GLP1R cells; type: cell-based
T1 construct: The full-length cDNA was cloned in pcDNA3.1(+); expressed in transfected cells

[4] = Stability in liver microsomes; type: in vitro ADME; conditions: 2 μM peptidomimetic, human liver microsomes, 37° C.
Protocol: as §1

[5] = system: RIN5F (Rat Insulinoma) cells; test: In vitro glucose-dependent insulin secretion (RIN5F cell assay screening protocol); type: cell-based; conditions: 16.7 mM glucose load
[6] = Stability in simulated gastric fluid; type: in vitro ADME; conditions: 2 μM peptidomimetic, simulated gastric fluid pH 1.5, 37° C.; for half-life at 2 μM: read-out: half-life (t1/2) when incubated with simulated gastric fluid
Protocol: as §1

human glucagon receptor = biological target: T2, human glucagon receptor (Homo sapiens, UniProt P47871); test: In vitro human glucagon antagonist activity (inhibition of cAMP production) in CHO/human glucagon R cells; type: cell-based; conditions: with saturated concentration of glucagon peptide
T2 construct: The full-length cDNA was cloned in pcDNA3.1 (Invitrogen); expressed in transfected cells
T2 sequence (P47871 26-477): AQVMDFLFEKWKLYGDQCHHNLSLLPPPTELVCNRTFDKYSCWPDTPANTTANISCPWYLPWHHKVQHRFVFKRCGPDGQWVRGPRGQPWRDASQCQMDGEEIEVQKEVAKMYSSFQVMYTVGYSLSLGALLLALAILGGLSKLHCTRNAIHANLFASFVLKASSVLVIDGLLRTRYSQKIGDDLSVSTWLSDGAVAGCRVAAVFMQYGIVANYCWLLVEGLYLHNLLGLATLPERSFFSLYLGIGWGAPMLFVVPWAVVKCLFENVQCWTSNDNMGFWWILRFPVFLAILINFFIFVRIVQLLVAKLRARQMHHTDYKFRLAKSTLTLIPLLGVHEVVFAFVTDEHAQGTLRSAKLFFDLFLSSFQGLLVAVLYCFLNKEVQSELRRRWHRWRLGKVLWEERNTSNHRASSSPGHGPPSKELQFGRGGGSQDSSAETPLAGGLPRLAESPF

T1 sequence (P43220 24-463): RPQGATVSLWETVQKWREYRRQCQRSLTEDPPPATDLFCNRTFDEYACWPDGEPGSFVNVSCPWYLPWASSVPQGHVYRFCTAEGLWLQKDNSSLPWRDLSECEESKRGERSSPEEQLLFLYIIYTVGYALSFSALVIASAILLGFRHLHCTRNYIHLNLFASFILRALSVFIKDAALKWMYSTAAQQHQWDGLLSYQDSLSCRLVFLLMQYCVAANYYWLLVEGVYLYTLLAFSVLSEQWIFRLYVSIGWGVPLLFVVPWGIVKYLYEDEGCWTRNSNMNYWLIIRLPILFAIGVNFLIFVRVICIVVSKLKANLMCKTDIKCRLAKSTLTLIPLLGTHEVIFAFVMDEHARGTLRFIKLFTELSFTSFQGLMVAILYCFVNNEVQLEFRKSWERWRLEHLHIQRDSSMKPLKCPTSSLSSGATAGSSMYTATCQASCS
Chain of DPP IV (P27487 whole entry, species assumed): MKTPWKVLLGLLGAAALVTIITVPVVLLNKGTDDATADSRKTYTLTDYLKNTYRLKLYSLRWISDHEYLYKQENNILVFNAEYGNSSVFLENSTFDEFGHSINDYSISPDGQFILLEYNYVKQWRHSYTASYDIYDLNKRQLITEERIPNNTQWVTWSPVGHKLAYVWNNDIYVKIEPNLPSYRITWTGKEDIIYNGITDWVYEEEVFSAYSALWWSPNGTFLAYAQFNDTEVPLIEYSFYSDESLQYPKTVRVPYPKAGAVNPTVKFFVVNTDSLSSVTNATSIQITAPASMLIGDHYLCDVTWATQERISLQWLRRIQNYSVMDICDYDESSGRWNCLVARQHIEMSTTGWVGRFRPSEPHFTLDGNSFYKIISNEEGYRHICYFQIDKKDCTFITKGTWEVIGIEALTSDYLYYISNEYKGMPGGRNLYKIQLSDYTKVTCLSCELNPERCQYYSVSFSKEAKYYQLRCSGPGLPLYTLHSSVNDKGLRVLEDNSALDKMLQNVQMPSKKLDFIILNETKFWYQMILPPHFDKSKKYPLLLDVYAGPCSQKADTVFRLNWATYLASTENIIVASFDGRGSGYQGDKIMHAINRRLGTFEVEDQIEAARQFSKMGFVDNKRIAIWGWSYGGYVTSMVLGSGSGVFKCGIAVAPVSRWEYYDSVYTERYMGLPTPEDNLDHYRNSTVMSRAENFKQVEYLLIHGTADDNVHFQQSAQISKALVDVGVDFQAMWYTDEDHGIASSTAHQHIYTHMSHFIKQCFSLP

Compound	% degradation of peptidomimetics in 24 h when incubated with simulated intestinal fluid [2] [%]	half-life at 2 μM [2] [h]	% degradation of peptidomimetics in 24 h when incubated with human plasma [3] [%]	half-life at 2 μM [3] [h]	% degradation of peptidomimetics in 24 h when incubated with DPP-IV enzyme (DPP IV) [%]	half-life at 2 μM (DPP IV) [h]	Human GLP-1 R activity (cAMP release), % activity with respect to control (Human GLP-1 receptor; 1 nM test compound) [%]	Human GLP-1 R activity (cAMP release), % activity with respect to control (Human GLP-1 receptor; 10 nM test compound) [%]	Human GLP-1 R activity (cAMP release), % activity with respect to control (Human GLP-1 receptor; 100 nM test compound) [%]	Human GLP-1 R activity (cAMP release), % activity with respect to control (Human GLP-1 receptor; 1 μM test compound) [%]	Human GLP-1 R activity (cAMP release), % activity with respect to control (Human GLP-1 receptor; 10 μM test compound) [%]	% degradation of peptidomimetics in 24 h when incubated with liver microsomes [4] [%]	Insulin secretion ([5]; 0.1 nM test compd.) [pg/µg/h]	Insulin secretion ([5]; 1 nM test compd.) [pg/µg/h]	Insulin secretion ([5]; 10 nM test compd.) [pg/µg/h]	% degradation of peptidomimetics in 24 h when incubated with simulated gastric fluid [6] [%]	half-life at 2 μM [6] [h]	Human Glucagon receptor antagonistic activity shown as inhibition of cAMP production of Glucagon peptide (human glucagon receptor; 1 nM test compound) [pmol/ml/μg prt]	Human Glucagon receptor antagonistic activity shown as inhibition of cAMP production of Glucagon peptide (human glucagon receptor; 10 nM test compound) [pmol/ml/μg prt]	Human Glucagon receptor antagonistic activity shown as inhibition of cAMP production of Glucagon peptide (human glucagon receptor; 100 nM test compound) [pmol/ml/μg prt]	further results
CCc1cc(OC)ccc1-c1ccc(CC(C(=O)N(C)C(CCCc2ccccc2F)C(N)=O)N(C)C(=O)[C@H](CC(=O)O)N(C)C(=O)[C@H](CO)NC(=O)[C@@H](NC(=O)C(C)(Cc2ccccc2F)NC(=O)[C@@H](NC(=O)CNC(=O)C(CCC#N)NC(=O)C(C)(C)NC(=O)[C@@H](N)Cc2c[nH]cn2)[C@H](C)O)[C@H](C)O)cc1 (single isomer, unassigned) [Seq. ID. 156]																					blood glucose levels ([1]; 30 nM/kg i.p., 0 min): 180 ± 3.2; blood glucose levels ([1]; 30 nM/kg i.p., 30 min): 119 ± 3.2; blood glucose levels ([1]; 30 nM/kg i.p., 60 min): 117 ± 3.1; blood glucose levels ([1]; 30 nM/kg i.p., 120 min): 118 ± 1.8
CCc1cc(OC)ccc1-c1ccc(CC(CNC(CCCc2ccccc2F)C(N)=O)NC(=O)[C@H](CC(=O)O)NC(=O)[C@H](CO)NC(=O)[C@@H](NC(=O)C(C)(Cc2ccccc2F)NC(=O)[C@@H](NC(=O)CNC(=O)C(CCC#N)NC(=O)C(C)(C)NC(=O)[C@@H](N)Cc2c[nH]cn2)[C@H](C)O)[C@H](C)O)cc1 (single isomer, unassigned) [Seq. ID. 192]																					blood glucose levels ([1]; 10 nM/kg i.p., 0 min): 180 ± 2.5; blood glucose levels ([1]; 10 nM/kg i.p., 30 min): 110 ± 2.6; blood glucose levels ([1]; 10 nM/kg i.p., 60 min): 111 ± 3.2; blood glucose levels ([1]; 10 nM/kg i.p., 120 min): 112 ± 2.3
CCc1cc(OC)ccc1-c1ccc(CC(CNC(CCCc2ccccc2)C(N)=O)NC[C@H](CC(=O)O)NC(=O)[C@H](CO)NC(=O)[C@@H](NC(=O)C(C)(Cc2ccccc2F)NC(=O)[C@@H](NC(=O)CNC(=O)[C@H](CCC(N)=O)NC(=O)C(C)(C)NC(=O)[C@H](Cc2c[nH]cn2)NC(=O)OC)[C@@H](C)O)[C@@H](C)O)cc1 (single isomer, unassigned) [Seq. ID. 194]																					blood glucose levels ([1]; 10 nM/kg i.p., 0 min): 183 ± 2.2; blood glucose levels ([1]; 10 nM/kg i.p., 30 min): 113 ± 2.8; blood glucose levels ([1]; 10 nM/kg i.p., 60 min): 113 ± 2.9; blood glucose levels ([1]; 10 nM/kg i.p., 120 min): 114 ± 2.0
CCc1cc(OC)ccc1-c1ccc(CC(CNC(CCCc2ccccc2F)C(N)=O)NC[C@H](CC(=O)O)NC(=O)[C@H](CO)NC(=O)[C@@H](NC(=O)C(C)(Cc2ccccc2F)NC(=O)[C@@H](NC(=O)CNC(=O)[C@H](CCC(N)=O)NC(=O)C(C)(C)NC(=O)[C@H](Cc2c[nH]cn2)NC(=O)OC)[C@H](C)O)[C@H](C)O)cc1 (single isomer, unassigned) [compound 200]	00	> 24	00	> 24	00	> 24	55 ± 0.16	88 ± 0.13	92 ± 0.11	99 ± 0.07	99 ± 0.09	81	16.5 ± 0.12	22.7 ± 0.17	36.5 ± 0.05	52	4	10 ± 0.16	8 ± 0.12	6 ± 0.14	half-life at 2 μM ([4]; pH 7.8, read-out: half-life (t1/2) when incubated with liver microsomes): 2 h; Human Glucagon receptor antagonistic activity shown as inhibition of cAMP production of Glucagon peptide (human glucagon receptor; 1 μM test compound): 4 ± 0.15 pmol/ml/μg prt; Human Glucagon receptor antagonistic activity shown as inhibition of cAMP production of Glucagon peptide (human glucagon receptor; 10 μM test compound): 1 ± 0.12 pmol/ml/μg prt
CCc1cc(OC)ccc1-c1ccc(CC(CNC(CCCc2ccccc2)C(N)=O)NC[C@H](CC(=O)O)NC(=O)[C@H](CO)NC(=O)[C@@H](NC(=O)C(C)(Cc2ccccc2F)NC(=O)[C@@H](NC(=O)CNC(=O)C(CCC#N)NC(=O)C(C)(C)NC(=O)[C@@H](N)Cc2c[nH]cn2)[C@H](C)O)[C@H](C)O)cc1 (single isomer, unassigned) [compound 202]	00	> 24	00	> 24	00	> 24	99 ± 0.12	99 ± 0.15	99 ± 0.18	99 ± 0.03	99 ± 0.09	33	16.8 ± 0.20	22.7 ± 0.29	36.6 ± 0.31	00	> 24	9 ± 0.14	6 ± 0.14	5 ± 0.13	half-life (t1/2) when incubated with liver microsomes [4]: (5) h; Human Glucagon receptor antagonistic activity shown as inhibition of cAMP production of Glucagon peptide (human glucagon receptor; 1 μM test compound): 3 ± 0.24 pmol/ml/μg prt; Human Glucagon receptor antagonistic activity shown as inhibition of cAMP production of Glucagon peptide (human glucagon receptor; 10 μM test compound): 0 pmol/ml/μg prt
CCc1cc(OC)ccc1-c1ccc(CC(NC(=O)[C@H](CC(=O)O)NC(=O)[C@H](CO)NC(=O)[C@@H](NC(=O)C(C)(Cc2ccccc2F)NC(=O)[C@@H](NC(=O)CNC(=O)C(CCC#N)NC(=O)C(C)(C)NC(=O)[C@H](Cc2c[nH]cn2)NC(=O)OC)[C@@H](C)O)[C@@H](C)O)C(=O)NC(CCCc2ccccc2)C(N)=O)cc1 (single isomer, unassigned) [compound 206]	00	> 24	00	> 24	00	> 24	39 ± 0.12	80 ± 0.15	86 ± 0.18	95 ± 0.03	98 ± 0.09	32	12.1 ± 0.42	14.6 ± 0.41	27.8 ± 0.46	00	> 24	0	0	0	half-life (t1/2) when incubated with liver microsomes [4]: (5) h; Human Glucagon receptor antagonistic activity shown as inhibition of cAMP production of Glucagon peptide (human glucagon receptor; 1 μM test compound): 0 pmol/ml/μg prt; Human Glucagon receptor antagonistic activity shown as inhibition of cAMP production of Glucagon peptide (human glucagon receptor; 10 μM test compound): 0 pmol/ml/μg prt
